Source: PubChem BioAssay (NCI)
Where “and” joins values, the source holds several entries; their conditions need not be identical. Equal entries are not always repeated.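 Growth conditions: 96-well plates. Treatment: test compound, 48 hours, 5 concentrations. Analysis: linear interpolation between bracketing concentrations; unreached endpoints set to highest concentration. At the GI50, growth is halved. TGI is the concentration that stops growth completely.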

Assays:
Experiment in all cases: NCI anticancer screen, dose series, 48 h
M14 melanoma = tested on: M14 melanoma
OVCAR-4 ovarian = tested on: OVCAR-4 ovarian
OVCAR-8 ovarian = tested on: OVCAR-8 ovarian
RPMI-8226 leukemia = tested on: RPMI-8226 leukemia
CCRF-CEM leukemia = tested on: CCRF-CEM leukemia
NCI-H23 lung = tested on: NCI-H23 lung
SK-MEL-28 melanoma = tested on: SK-MEL-28 melanoma
SK-MEL-2 melanoma = tested on: SK-MEL-2 melanoma
NCI/ADR-RES ovarian = tested on: NCI/ADR-RES ovarian
ACHN renal = tested on: ACHN renal

Row | SMILES | GI50 (M14 melanoma) | TGI (M14 melanoma) | GI50 (OVCAR-4 ovarian) | TGI (OVCAR-4 ovarian) | GI50 (OVCAR-8 ovarian) | TGI (OVCAR-8 ovarian) | TGI (RPMI-8226 leukemia) | GI50 (CCRF-CEM leukemia) | TGI (CCRF-CEM leukemia) | GI50 (NCI-H23 lung) | TGI (NCI-H23 lung) | GI50 (SK-MEL-28 melanoma) | TGI (SK-MEL-28 melanoma) | GI50 (SK-MEL-2 melanoma) | TGI (SK-MEL-2 melanoma) | GI50 (NCI/ADR-RES ovarian) | TGI (NCI/ADR-RES ovarian) | GI50 (ACHN renal) | TGI (ACHN renal) | GI50 (RPMI-8226 leukemia)
1 | COc1cccc(N2CC(O)=C(c3nc4ccccc4s3)C2=N)c1 | 0.35 µM | 48.8 µM | 6.19 µM | > 100 µM | 0.838 µM | 65.9 µM | > 100 µM | 0.243 µM | > 100 µM | 0.652 µM | > 25.2 µM | 0.468 µM | > 65 µM | 7.14 µM | > 100 µM | 0.286 µM | > 23.2 µM | 0.307 µM | > 60.2 µM | 
2 | CCC(=O)NC1=C(Cl)C(=O)C(NC(=O)CC)=C(Cl)C1=O | 15.2 µM | 29.9 µM | 14.4 µM | 29 µM | 37.4 µM | > 60.6 µM | 30.4 µM | 3.04 µM | > 21.6 µM | 18.5 µM | 40.8 µM | 10.5 µM | 23.2 µM | 20.6 µM | 39.5 µM | 24 µM | 58.6 µM | 5.6 µM | 10.9 µM | 8.98 µM
3 | CN1CCN(Cc2ccc(NC(=O)c3cncc(C#Cc4ccc(N)nc4)c3)cc2C(F)(F)F)CC1 | 0.486 µM | 1.63 µM | 0.46 µM | 4.5 µM | 1.73 µM | 9.9 µM | 3.82 µM | 1.46 µM | 11.8 µM | 1.3 µM | 6.27 µM | 1.47 µM | 5.54 µM | 0.363 µM | 1.36 µM | 1.9 µM | 10.3 µM | 0.461 µM | 4.4 µM | 1.05 µM
4 | Cc1cc(OCc2ccc(C(F)(F)F)cc2)c2c(c1)C(=O)C=C(NCCN1CCCC1)C2=O | 1.88 µM | 3.56 µM | 4.01 µM | 15.5 µM | 3.25 µM | 12.1 µM | 4.36 µM | 2.48 µM | 7.12 µM | 4.92 µM | 18.7 µM | 1.69 µM | 3.36 µM | 1.99 µM | 4.08 µM | 6.04 µM | 20.5 µM | 1.97 µM | 4.08 µM | 1.87 µM
5 | COc1cc2c(cc1OCC(=O)Nc1ccc(Cl)cc1C(=O)c1ccccc1Cl)N=CC1CCCN1C2=O (configuration not stated) | 14.1 µM | 27.9 µM | 14.4 µM | 32.9 µM | 12 µM | 26.3 µM | 98.8 µM | 6.52 µM | > 100 µM | 13.6 µM | 30.5 µM | 19.9 µM | 36.4 µM | 7.4 µM | 19.6 µM | 21.5 µM | 64.8 µM | 11.5 µM | 23.8 µM | 20.3 µM
6 | Nc1nc(N)c2c(ccc3c2ccn3Cc2cccc([N+](=O)[O-])c2)n1 | 0.00865 µM | 1.77 µM | 1.15 µM | 2.59 µM | 0.00901 µM | 1.7 µM |  | 0.0221 µM and 0.0126 µM | 2.03 µM and 1.07 µM | 0.0566 µM | 2.46 µM | 1.04 µM and 1.02 µM | 2.36 µM and 2.2 µM | 1.26 µM | 2.62 µM | 0.0775 µM and 0.0835 µM | 18.6 µM | 0.0372 µM | 1.74 µM | 0.0585 µM and 0.0185 µM
7 | Cc1c(C(=O)Nc2ccc(N3C[C@@H](C)O[C@@H](C)C3)nc2)cccc1-c1ccc(OC(F)(F)F)cc1 | 14.4 µM and 19.3 µM | > 100 µM | 4.28 µM and 11.5 µM | 21.4 µM and 36.2 µM | 7.9 µM and 10.8 µM | 30.9 µM and 46.3 µM | > 100 µM | 9.77 µM and 50 µM | > 100 µM | 5.98 µM and 12.4 µM | 25.5 µM and 40.4 µM | 12.9 µM and 16.8 µM | 33.6 µM and 40.1 µM | 13.1 µM and 21.6 µM | 44.9 µM and > 100 µM | 5.69 µM and 13.5 µM | 26.6 µM and 42.1 µM | 5.6 µM and 14.4 µM | 23.3 µM and 44.1 µM | 5.7 µM and 12 µM
8 | COc1ccc2c3ccnc(C(F)(F)F)c3n(CCCCN)c2c1 | 4.93 µM | 17.3 µM | 11.7 µM | 25.5 µM | 8.95 µM | 26.4 µM | 15.8 µM | 9.02 µM | 47.8 µM | 8.65 µM | 22.2 µM | 1.92 µM | 3.82 µM | 16.8 µM | 35.7 µM | 8.6 µM | 28.1 µM | 4.58 µM | 16.1 µM | 3.05 µM
9 | CC1=CC(C)=N/C(=N/S(=O)(=O)c2cc(C)c(Cl)cc2SCc2ccccc2)NN1 | > 100 µM | > 100 µM | 79.1 µM | > 100 µM | > 100 µM | > 100 µM | > 100 µM | > 100 µM | > 100 µM | > 100 µM | > 100 µM | > 100 µM | > 100 µM | > 100 µM | > 100 µM | > 100 µM | > 100 µM | > 100 µM | > 100 µM | > 100 µM
10 | CC(C)(C)NCC(O)c1ccccc1Cl (configuration not stated) | > 100 µM | > 100 µM | > 100 µM | > 100 µM | > 100 µM | > 100 µM | > 100 µM | > 100 µM | > 100 µM | > 100 µM | > 100 µM | > 100 µM | > 100 µM | > 100 µM | > 100 µM | > 100 µM | > 100 µM | > 100 µM | > 100 µM | > 100 µM
11 | NS(=O)(=O)c1ccc(-n2nc3c(c2-c2cccs2)Cc2ccccc2-3)cc1 | 17.3 µM | 34.1 µM | 29.9 µM | > 100 µM | 20.5 µM | 41.6 µM | 26.6 µM | 4.24 µM | 28.7 µM | 11.9 µM | 24.8 µM | 25.8 µM | 58.4 µM | 27.6 µM | 69.6 µM | 12.4 µM | 26.1 µM | 11.7 µM | 24.7 µM | 6.68 µM
12 | CC1(C)OCC2OC(n3cnc4c(N)nc(Cl)nc43)C(OS(C)(=O)=O)C2O1 (configuration not stated) |  | > 100 µM |  | > 100 µM |  | > 100 µM | > 100 µM |  | > 100 µM |  | > 100 µM |  | > 100 µM |  | > 100 µM |  | > 100 µM |  | > 100 µM | 
13 | COC(=O)C1=C(C)NC(=S)NC1c1ccc(N(CCCl)CCCl)cc1Cl (configuration not stated) |  | > 87.9 µM |  | > 84.1 µM |  | > 100 µM | > 4.64 µM |  | > 32.7 µM |  | > 62.1 µM |  | > 100 µM |  | > 85.9 µM |  | > 100 µM |  | > 75.9 µM | 
14 | CC1=CC2(C)/C=C(C)/C=C\CC(O)/C=C3/C=CC(=C4C(=O)OC2(CC1C)C4=O)OC3 (configuration not stated) | 2.8 µM | 9.21 µM | 1.89 µM | 4.91 µM | 2.12 µM | 9.01 µM |  | 0.673 µM | 7.95 µM | 2.66 µM | 7.82 µM | 1.6 µM | 3.33 µM | 2.61 µM | 6.51 µM | 3.08 µM | 12.2 µM | 1.32 µM | 2.67 µM | 0.328 µM
15 | CCC(=O)OCOc1ccc(/C=C2\CCC(CN(C)C)C2=O)cc1 (configuration not stated) |  | 9.23 µM |  | 15.3 µM |  | 11.2 µM | > 23.3 µM |  | > 23.1 µM |  | 15.8 µM |  | 9.73 µM |  | 27.9 µM |  | 6.78 µM |  | 20.4 µM | 
16 | Clc1ccc2c(NC3CCC(N4CCCCC4)CC3)ccnc2c1 (configuration not stated) |  | 18.1 µM |  | 78.6 µM |  | > 100 µM | 84 µM |  | > 100 µM |  | > 100 µM |  | 36.8 µM |  | 33.9 µM |  | > 100 µM |  | > 100 µM | 
17 | Cc1ccc2ccccc2c1CSc1nc(N)nc2c1ncn2CC(C)C |  | > 80.8 µM |  | > 100 µM |  | > 100 µM | > 73.3 µM |  | > 95.5 µM |  | > 100 µM |  | > 100 µM |  | > 73.9 µM |  | > 100 µM |  | > 100 µM | 
18 | CC1Cc2c(Cl)ncnc2N(C)c2ccccc21 (configuration not stated) | 2.77 µM | 17.3 µM | 3.02 µM | > 100 µM | 3.42 µM | 27.3 µM | 16.4 µM | 4.53 µM | > 100 µM | 2.82 µM | 10.9 µM | 1.82 µM | 26.5 µM | 2.61 µM | 6.1 µM | 2.69 µM | 12.4 µM | 3.79 µM | > 100 µM | 3.54 µM
19 | O=C1C=CC2C3C(=O)N(c4ccccc4)C(=O)C3C1N2Cc1ccccc1 (configuration not stated) | 2.6 µM | 7.12 µM | 5.54 µM | 17.7 µM | 2.88 µM | 10.1 µM | 5.18 µM | 0.942 µM | 4.12 µM | 5.37 µM | > 48.3 µM | 3.02 µM | 11.3 µM | 4.37 µM | 9.29 µM | 2.55 µM | 8.75 µM | 3.36 µM | 7.61 µM | 1.59 µM
20 | CCC[CH2][Sn]1([CH2]CCC)[O]C(=O)c2cccc([N+](=O)[O-])c2C(=O)[O]1 | 0.682 µM | 2.07 µM | 0.465 µM | 1.73 µM | 1.04 µM | 2.24 µM | 0.596 µM | 0.0617 µM | 0.683 µM | 0.301 µM | 1.19 µM | 0.465 µM | 1.43 µM | 0.286 µM | 0.825 µM | 1.53 µM | 3.21 µM | 0.348 µM | 1.27 µM | 0.186 µM
21 | CC(C)[C@@H](C(=O)O[C@@H]1/C=C/C(=O)O[C@@H](C)CCC/C=C/[C@@H]2C[C@H](O)C[C@H]21)N(C)C | 15.2 µM | 63.2 µM | 9.09 µM | > 61.9 µM | 18.1 µM | > 83.2 µM | 27.1 µM | 7.84 µM | 35.1 µM | 23.3 µM | 91.8 µM | 6.03 µM | 23.5 µM | 23.1 µM | > 68.3 µM | 24.6 µM | > 93.6 µM | 38.4 µM | > 100 µM | 3.93 µM
22 | COc1cc(OC)c(/C=C/C(=O)c2c(OC)cc(OC)cc2OC)c(OC)c1 | 0.38 µM | 1.78 µM | 5.94 µM | > 100 µM | 3.43 µM | > 100 µM | 3.03 µM | 0.876 µM | > 100 µM | 1.35 µM | 6.67 µM | 0.855 µM | 5.24 µM | 0.984 µM | > 21.8 µM | 0.469 µM | 10 µM | 2.3 µM | > 100 µM | 0.566 µM
